From patent US9434711B2 (Janssen Pharmaceutica, NV, priority 2007, dated 2016)
pIC50: −log10 of the molar value. Where two headings read alike, the source gives them in different places.

Target: canine TRPM8 (Canis lupus familiaris, UniProt Q1A7N1)
Assay: In Vitro Canine TRPM8 Functional Assay (Ca2+ fluorescence, icilin activation)
Assay type: cell-based
Details: for pIC50: read-out: IC50; for inhibition at 0.2 µM: read-out: % Inh @ 0.2; for inhibition at 0.5 µM: compound at 0.5 μM, read-out: % Inh @ 0.5
Outline: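 HEK293 cells stably expressing canine TRPM8 were loaded with Calcium 3 dye (35 min at 37 °C, then 25 min at room temperature). Compound was added and Ca2+ fluorescence was read for 5 min before icilin at a concentration giving about 80% maximal response. EC50/IC50 came from eight-point dose-response curves, quadruplicate wells.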

[1] = HEK293 cells stably expressing canine TRPM8, icilin activation, eight-point dose-response
[2] = compound at 0.2 μM, canine TRPM8, icilin activation
[3] = canine TRPM8, icilin activation
[4] = 0.2 μM compound, HEK293 cells stably expressing canine TRPM8, icilin activation
[5] = HEK293 cells stably expressing canine TRPM8, icilin activation, average of two or more determinations

canine TRPM8, sequence (Q1A7N1 1-1104): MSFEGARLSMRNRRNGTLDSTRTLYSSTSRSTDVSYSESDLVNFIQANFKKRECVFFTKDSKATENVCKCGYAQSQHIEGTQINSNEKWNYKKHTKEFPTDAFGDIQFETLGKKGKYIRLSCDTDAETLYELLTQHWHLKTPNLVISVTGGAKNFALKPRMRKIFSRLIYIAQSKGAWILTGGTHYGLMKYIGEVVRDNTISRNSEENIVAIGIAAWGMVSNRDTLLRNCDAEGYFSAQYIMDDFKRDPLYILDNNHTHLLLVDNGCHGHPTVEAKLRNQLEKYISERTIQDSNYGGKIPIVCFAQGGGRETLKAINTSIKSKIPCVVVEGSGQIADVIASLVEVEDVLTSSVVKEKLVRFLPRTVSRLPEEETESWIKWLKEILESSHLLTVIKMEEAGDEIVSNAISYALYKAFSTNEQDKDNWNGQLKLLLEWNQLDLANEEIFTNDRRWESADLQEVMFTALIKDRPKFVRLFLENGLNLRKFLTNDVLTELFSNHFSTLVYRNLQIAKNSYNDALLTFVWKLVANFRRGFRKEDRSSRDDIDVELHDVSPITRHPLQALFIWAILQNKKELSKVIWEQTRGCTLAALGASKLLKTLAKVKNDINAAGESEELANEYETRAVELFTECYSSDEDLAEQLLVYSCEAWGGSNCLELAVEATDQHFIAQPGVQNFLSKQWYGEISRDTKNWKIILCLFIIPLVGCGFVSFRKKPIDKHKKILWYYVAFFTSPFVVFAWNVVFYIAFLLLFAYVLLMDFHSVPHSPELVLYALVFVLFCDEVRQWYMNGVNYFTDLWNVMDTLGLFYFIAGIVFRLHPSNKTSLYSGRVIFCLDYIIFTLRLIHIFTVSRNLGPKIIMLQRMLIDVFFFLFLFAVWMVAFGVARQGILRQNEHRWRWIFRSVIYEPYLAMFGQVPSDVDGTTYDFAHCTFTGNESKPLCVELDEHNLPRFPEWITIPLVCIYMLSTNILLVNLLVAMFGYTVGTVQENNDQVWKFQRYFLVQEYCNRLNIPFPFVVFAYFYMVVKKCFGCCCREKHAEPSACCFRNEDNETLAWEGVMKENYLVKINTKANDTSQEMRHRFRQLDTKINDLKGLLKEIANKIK

SMILES	pIC50 [1]	inhibition at 0.2 µM [2]	further results
O=S(=O)(c1ccccc1)N(CC1CCCCC1)c1sc2ccccc2c1Br [Compound 232, N-(3-Bromo-benzo[b]thiophen-2-yl)-N-(cyclohexylmethyl)-benzenesulfonamide]	7.13	–	inhibition at 0.5 µM [3]: 94%
COc1cccc(S(=O)(=O)N(Cc2ccc(F)c(C(F)(F)F)c2)c2sc3ccccc3c2Br)c1 [Compound 185, N-(3-Bromo-benzo[b]thiophen-2-yl)-N-(4-fluoro-3-trifluoromethyl-benzyl)-3-methoxy-benzenesulfonamide]	8.19	102%	–
CC(O)c1c(N(Cc2ccc(F)c(C(F)(F)F)c2)S(=O)(=O)c2ccc(C(=O)O)cc2)sc2ccccc12 (stereo not drawn) [Compound 335, N-(4-Fluoro-3-trifluoromethyl-benzyl)-N-[3-(1-hydroxy-ethyl)-benzo[b]thiophen-2-yl]-4-carboxybenzenesulfonamide]	9.00	101%	–
O=S(=O)(c1ccccn1)N(Cc1ccc(F)c(F)c1)c1cc2ccccc2s1 [Compound 9, N-(Benzo[b]thiophen-2-yl)-N-(3,4-difluoro-benzyl)-pyridine-2-sulfonamide]	7.33	–	inhibition at 0.5 µM [3]: 98%
Cc1c(N(CCCCC(F)(F)F)S(=O)(=O)c2ccc(-c3nn(C)c(=O)[nH]3)cc2)sc2ccccc12 [Compound 812, N-(3-Methyl-benzo[b]thiophen-2-yl)-N-(5,5,5-trifluoro-pentyl)-4-(1-methyl-5-oxo-4,5-dihydro-1H-[1,2,4]triazol-3-yl)-benzenesulfonamide]	–	–	inhibition at 0.2 µM [4]: 103%; pIC50 [5]: 8.12
CC(=O)c1c(N(Cc2ccc(F)c(F)c2)S(C)(=O)=O)sc2ccccc12 [Compound 229, N-(3-Acetyl-benzo[b]thiophen-2-yl)-N-(3,4-difluoro-benzyl)-methanesulfonamide]	7.68	99%	–
Cc1c(N(CCC2CC2)S(=O)(=O)c2ccc(-c3noc(=O)[nH]3)nc2)sc2ccccc12 [Compound 807]	–	–	inhibition at 0.2 µM [4]: 103%; pIC50 [5]: 8.22
Cc1c(N(Cc2ccc(S(=O)(=O)C(F)(F)F)cc2)S(=O)(=O)c2ccc(C(=O)O)cc2)sc2ccccc12 [Compound 494, N-(3-Methyl-benzo[b]thiophen-2-yl)-N-(4-trifluoromethylsulfone-benzyl)-4-carboxy-benzenesulfonamide]	9.05	–	% Inh @ 0.2 (μM) [2]: 101%
COc1ccc(S(=O)(=O)N(Cc2ccc(F)c(C(F)(F)F)c2)c2sc3ccccc3c2Cl)cc1 [Compound 181, N-(3-Chloro-benzo[b]thiophen-2-yl)-N-(4-fluoro-3-trifluoromethyl-benzyl)-4-methoxy-benzenesulfonamide]	7.08	95%	–
CCS(=O)(=O)N(Cc1ccc(F)c(C(F)(F)F)c1)c1sc2ccccc2c1-c1ccc(F)cc1 [Compound 201, N-[3-(4-Fluoro-phenyl)-benzo[b]thiophen-2-yl]-N-(4-fluoro-3-trifluoromethyl-benzyl)-ethanesulfonamide]	–	14%	–
Cc1c(N(Cc2ccc3c(c2)OCO3)S(=O)(=O)c2ccc(C(=O)O)cc2)sc2ccccc12 [Compound 523, N-(3-Methyl-benzo[b]thiophen-2-yl)-N—(C-benzo[1,3]dioxol-5-yl-methy)-4-carboxy-benzenesulfonamide]	8.70	–	% Inh @ 0.2 (μM) [2]: 101%
CC(=O)c1c(N(Cc2ccc(F)c(C(F)(F)F)c2)S(C)(=O)=O)sc2ccccc12 [Compound 228, N-(3-Acetyl-benzo[b]thiophen-2-yl)-N-(4-fluoro-3-trifluoromethyl-benzyl)-methanesulfonamide]	8.22	101%	–
Cc1c(N(CCCC(F)(F)F)S(=O)(=O)c2ccc(C(=O)O)cc2)sc2cc(F)ccc12 [Compound 426, N-(6-Fluoro-3-methyl-benzo[b]thiophen-2-yl)-N-(4,4,4-trifluoro-butyl)-4-carboxy-benzenesulfonamide]	7.52	95%	–
O=C1NCCN1CCN(c1sc2ccccc2c1Cl)S(=O)(=O)c1ccccc1 [Compound 91, N-(3-Chloro-benzo[b]thiophen-2-yl)-N-[2-(2-oxo-imidazolidin-1-yl)-ethyl]-benzenesulfonamide]	–	–	inhibition at 0.5 µM [3]: 33%
CCS(=O)(=O)N(Cc1ccc(F)c(C(F)(F)F)c1)c1sc2ccccc2c1CNC [Compound 347, N-(4-Fluoro-3-trifluoromethyl-benzyl)-N-(3-methylaminomethyl-benzo[b]thiophen-2-yl)-ethanesulfonamide]	7.24	95%	–

Continued, in another order:

pIC50 [1]	inhibition at 0.2 µM [2]	SMILES	further results
7.60	103%	CNc1ccc(S(=O)(=O)N(CCC2CC2)c2sc3ccccc3c2Br)cc1 [Compound 693, N-(3-Bromo-benzo[b]thiophen-2-yl)-N-(2-cyclopropyl-ethyl)-4-methylamino-benzenesulfonamide]	–
7.57	69%	COC(=O)c1ccc(S(=O)(=O)N(Cc2ccc(OC(F)(F)F)cc2)c2sc3ccccc3c2C2CC2)cc1 [Compound 753, N-(3-Cyclopropyl-benzo[b]thiophen-2-yl)-N-(4-trifluoromethoxy-benzyl)-4-carbomethoxy-benzenesulfonamide]	–
8.00	93%	CCCCN(c1sc2ccccc2c1Br)S(=O)(=O)c1ccc(-c2nnn[nH]2)cc1 [Compound 428, N-(3-Bromo-benzo[b]thiophen-2-yl)-N-(butyl)-4-(1H-tetrazol-5-yl)-benzenesulfonamide]	–
7.89	102%	O=c1[nH]c(-c2ccc(S(=O)(=O)N(CCC(F)(F)F)c3sc4ccccc4c3Br)cc2)ns1 [Compound 708, N-(3-Bromo-benzo[b]thiophen-2-yl)-N-(3,3,3-trifluoro-propyl)-4-(5-oxo-4,5-dihydro-[1,2,4]thiadiazol-3-yl)-benzenesulfonamide]	–
–	47%	CS(=O)(=O)Nc1c(N(Cc2ccc(F)c(C(F)(F)F)c2)S(=O)(=O)c2ccccc2)sc2ccccc12 [Compound 508, N-(4-Fluoro-3-trifluoromethyl-benzyl)-N-(3-methanesulfonylamino-benzo[b]thiophen-2-yl)-benzenesulfonamide]	–
7.34	88%	COC(=O)c1ccc(S(=O)(=O)N(CCCCC(F)(F)F)c2sc3ccccc3c2Cl)cc1 [Compound 531, N-(3-Chloro-benzo[b]thiophen-2-yl)-N-(5,5,5-trifluoro-pentyl)-4-carbomethoxy-benzenesulfonamide]	–
7.20	90%	CCCCN(c1sc2ccccc2c1C(N)=O)S(=O)(=O)c1ccc(C(=O)OC)cc1 [Compound 465, N-(Butyl)-N-(3-carbamoyl-benzo[b]thiophen-2-yl)-4-carbomethoxy-benzenesulfonamide]	–
7.72	102%	CCCCN(c1sc2ccccc2c1C(C)(C)O)S(=O)(=O)c1ccc(C(=O)OC)cc1 [Compound 516, N-(Butyl)-N-(3-(1-hydroxy-1-methyl-ethyl)-benzo[b]thiophen-2-yl)-4-carbomethoxy-benzenesulfonamide]	–
8.00	100%	O=C(O)c1ccc(S(=O)(=O)N(Cc2ccc(F)c(C(F)(F)F)c2)c2sc3ccccc3c2C2CCCC2)cc1 [Compound 502, N-(3-Cyclopentyl-benzo[b]thiophen-2-yl)-N-(4-fluoro-3-trifluoromethyl-benzyl)-4-carboxy-benzenesulfonamide]	–
